Experimental data reported in patent US20240425441A9, “MODULATORS OF LIPOXYGENASE AND CYCLOOXYGENASE ENZYME ACTIVITY” (Université de Moncton, priority 2016, published 2024).
Like-named read-outs stand apart in the source and are kept apart here. Values belong to the molecule of their own block, whether it stands above or below them.

Assays:
Type in all cases: cell-based
5-lipoxygenase [1] = target: T1, 5-lipoxygenase (Homo sapiens (Human), UniProt P09917); assay: Stimulation of isolated PMN (neutrophils) for 5-LO products; conditions: ranges indicate confidence interval, read-out: PMN dose-response
T1 sequence (P09917 whole entry): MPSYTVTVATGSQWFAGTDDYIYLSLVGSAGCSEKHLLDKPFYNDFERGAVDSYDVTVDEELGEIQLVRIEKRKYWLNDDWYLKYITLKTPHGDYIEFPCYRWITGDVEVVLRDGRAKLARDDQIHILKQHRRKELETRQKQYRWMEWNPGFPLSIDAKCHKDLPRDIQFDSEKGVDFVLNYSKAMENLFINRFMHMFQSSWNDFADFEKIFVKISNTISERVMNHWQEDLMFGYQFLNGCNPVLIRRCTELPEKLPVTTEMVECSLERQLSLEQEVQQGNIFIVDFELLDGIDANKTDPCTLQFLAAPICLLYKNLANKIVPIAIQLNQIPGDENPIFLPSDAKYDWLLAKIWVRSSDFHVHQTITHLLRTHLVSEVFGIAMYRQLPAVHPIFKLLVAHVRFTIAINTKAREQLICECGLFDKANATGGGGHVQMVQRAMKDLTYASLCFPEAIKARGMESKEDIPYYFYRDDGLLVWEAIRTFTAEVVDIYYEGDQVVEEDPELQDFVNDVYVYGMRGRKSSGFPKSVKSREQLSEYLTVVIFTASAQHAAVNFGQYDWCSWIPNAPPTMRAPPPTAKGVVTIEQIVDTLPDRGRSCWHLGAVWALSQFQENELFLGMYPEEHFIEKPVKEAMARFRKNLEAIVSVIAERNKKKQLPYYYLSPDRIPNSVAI
Experimental: Briefly, blood was centrifuged at 300×g for 5 min at room temperature, plasma was collected and erythrocytes were removed after dextran sedimentation.
Isolated PMN (1×10^7 cells/mL) resuspended in Hank's balanced salt solution (HBSS, Lonza, Walkerville, MD) containing 1.6 mM CaCl2) were pre-incubated with test compounds for 5 min at 37° C. in the presence of 1 U/mL of adenosine deaminase. […] Reactions were stopped with the addition of 0.5 volume of cold MeOH:CH3CN (1:1) and 50 ng of PGB2 as internal standard, and samples were stored at −20° C. overnight for protein denaturation. […] Total 5-LO products quantified represents the sum of LTB4, its trans isomers, 20-COOH— and 20-OH-LTB4 and 5-hydroxyeicosatetraenoic acid.

5-lipoxygenase [2] = target: T1, 5-lipoxygenase; assay: Ex vivo whole blood stimulation with zymosan; total 5-LO products; conditions: zymosan-stimulated whole blood; read-out: Whole blood dose-response
Experimental: Each compound or its diluent was added to heparinized blood obtained from healthy donors (1 mL) at the indicated concentration and incubated for 10 min at 37° C. in a water bath. Following incubations, 125 μL of 40 mg/mL opsonised zymosan was added to each sample, gently vortexed and incubated for 30 min at 37° C. Samples were then centrifuged for 10 min at 960×g at 4° C. Plasma, 350 μL, was removed and added to 1.2 ml of methanol:acetonitrile (1:1) and 50 ng of PGB2 as internal standard. Samples were left overnight at −20° C. for protein denaturation. […] Total 5-LO products quantified represents the sum of LTB4, its trans isomers, 20-COOH— and 20-OH-LTB4 and 5-hydroxyeicosatetraenoic acid.

COX-2 = COX-2 (Homo sapiens (Human), UniProt P35354); assay: COX-2 activity, products from LPS-primed human neutrophils; conditions: 100% no inhibition, 0% complete inhibition
Sequence of COX-2 (P35354 18-604): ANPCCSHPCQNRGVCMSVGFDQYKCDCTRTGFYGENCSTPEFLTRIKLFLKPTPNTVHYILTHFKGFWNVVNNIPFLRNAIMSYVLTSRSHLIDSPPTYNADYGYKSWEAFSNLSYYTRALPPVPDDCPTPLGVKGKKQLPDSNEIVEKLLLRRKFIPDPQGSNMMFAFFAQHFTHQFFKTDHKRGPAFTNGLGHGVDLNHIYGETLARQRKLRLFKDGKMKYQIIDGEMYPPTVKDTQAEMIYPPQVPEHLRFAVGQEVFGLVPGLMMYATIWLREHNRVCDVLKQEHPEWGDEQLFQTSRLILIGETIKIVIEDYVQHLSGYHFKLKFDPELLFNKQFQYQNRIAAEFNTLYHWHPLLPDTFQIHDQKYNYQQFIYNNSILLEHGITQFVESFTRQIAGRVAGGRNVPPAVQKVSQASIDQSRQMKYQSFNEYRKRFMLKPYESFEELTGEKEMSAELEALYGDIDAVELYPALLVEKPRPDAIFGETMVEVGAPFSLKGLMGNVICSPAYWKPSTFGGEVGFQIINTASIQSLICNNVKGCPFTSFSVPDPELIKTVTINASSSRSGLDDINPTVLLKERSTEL

COX-1 = COX-1 (Homo sapiens (Human), UniProt P23219); assay: COX-1 inhibitory activity in human platelets; conditions: read-out: Percent inhibition at 1 μM
Sequence of COX-1 (P23219 24-599): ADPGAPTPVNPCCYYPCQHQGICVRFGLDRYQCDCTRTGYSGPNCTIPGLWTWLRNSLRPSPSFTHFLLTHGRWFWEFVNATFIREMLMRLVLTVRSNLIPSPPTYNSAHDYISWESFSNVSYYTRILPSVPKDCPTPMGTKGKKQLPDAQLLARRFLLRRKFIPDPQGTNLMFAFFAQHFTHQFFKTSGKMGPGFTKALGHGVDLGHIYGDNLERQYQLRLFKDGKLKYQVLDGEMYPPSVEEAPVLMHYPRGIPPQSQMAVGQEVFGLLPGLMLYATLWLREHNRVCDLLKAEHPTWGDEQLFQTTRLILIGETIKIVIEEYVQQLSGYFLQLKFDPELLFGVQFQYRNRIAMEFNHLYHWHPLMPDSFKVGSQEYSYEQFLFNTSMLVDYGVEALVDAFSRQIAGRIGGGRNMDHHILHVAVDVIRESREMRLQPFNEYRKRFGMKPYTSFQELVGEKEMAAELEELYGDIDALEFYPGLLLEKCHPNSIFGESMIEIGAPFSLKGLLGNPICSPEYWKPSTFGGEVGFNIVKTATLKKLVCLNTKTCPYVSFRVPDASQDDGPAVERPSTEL

5-lipoxygenase [3] = target: T1, 5-lipoxygenase; assay: Stimulation of HEK293 cells stably transfected with 5-LO and FLAP; total 5-LO products by HPLC; conditions: HEK293 cells expressing 5-LO and FLAP; ranges indicate confidence interval; read-out: HEK Dose-response
Experimental: HEK293 cells were detached by trypsinization and re-suspended in Hank's balanced salt solution containing 1.6 mM CaCl2). Cells (1×10^6 cells/mL) were preincubated at 37° C. with the test compounds or their diluent for 5 minutes and were then stimulated at 37° C. with 10 μM ionophore A23187 and 10 μM AA for 15 min. Stimulations were stopped by adding 0.5 volumes of a methanol:acetonitrile (1:1) solution containing 100 ng/mL each of PGB2 and 19-OH-PGB2 as internal standards, and samples were then kept at −20° C. overnight for protein denaturation. […] Total 5-LO products quantified represents the sum of LTB4, its trans isomers and 5-hydroxyeicosatetraenoic acid.

[4] = read-out: % of control COX-2 activity, n = 1
[5] = read-out: % of control COX-2 activity, n = 2

IC50 (5-lipoxygenase [1]): 790 nM | IC50 (5-lipoxygenase [2]): 2800 nM
Structure (SMILES): O=C(OCCc1ccccc1)c1cc(O)c(O)c(O)c1 [Compound 38, phenethyl 3,4,5-trihydroxybenzoate]

IC50 (5-lipoxygenase [1]): 840 nM
Structure (SMILES): O=C(/C=C/c1ccc(O)c(O)c1)CCc1ccccc1 [Compound 59, (E)-1-(3,4-dihydroxyphenyl)-5-phenylpent-1-en-3-one]

IC50 (5-lipoxygenase [1]): 860 nM | IC50 (5-lipoxygenase [2]): 2800 nM
Structure (SMILES): O=C(CCc1ccc(O)c(O)c1)OCCCCCc1ccccc1 [Compound 2, 5-phenylpentyl 3-(3,4-dihydroxyphenyl)propanoate]

IC50 (5-lipoxygenase [1]): 860 nM
Structure (SMILES): C=C(C)CCOC(=O)/C=C/c1ccc(O)c(O)c1 [Compound 17, (E)-3-methylbut-3-en-1-yl 3-(3,4-dihydroxyphenyl)acrylate]

IC50 (5-lipoxygenase [1]): 720 nM
Structure (SMILES): O=C(/C=C/c1ccc(O)c(O)c1)OCC(c1ccccc1)c1ccccc1 [Compound 27, (E)-2,2-diphenylethyl 3-(3,4-dihydroxyphenyl)acrylate]

IC50 (5-lipoxygenase [1]): 300 nM
Structure (SMILES): COc1cc(/C=C/C(=O)OCCc2ccccc2)cc(OC)c1O [Compound 45, (E)-phenethyl 3-(4-hydroxy-3,5-dimethoxyphenyl)acrylate]

IC50 (5-lipoxygenase [1]): 1600 nM | remaining activity at 1 µM (COX-2; [4]): 103% | remaining activity at 1 µM (COX-2; [5]): 101% | remaining activity at 1 µM (COX-2; read-out: Avg % of control): 102%
Structure (SMILES): O=C(/C=C/c1ccc(O)c(O)c1)NCCCc1ccccc1 [Compound 55, (E)-3-(3,4-dihydroxyphenyl)-N-(3-phenylpropyl)acrylamide]

inhibition at 1 µM (COX-1): < 20%
Structure (SMILES): O=C(Cc1ccc(O)c(O)c1)OCCc1ccccc1 [Compound 34, phenethyl 2-(3,4-dihydroxyphenyl)acetate]

inhibition at 1 µM (COX-1): < 20%
Structure (SMILES): O=C(OCCc1ccccc1)c1ccc(O)c(O)c1 [Compound 36, phenethyl 3,4-dihydroxybenzoate]

IC50 (5-lipoxygenase [1]): 920 nM
Structure (SMILES): O=C(/C=C/c1ccc(O)c(O)c1)NCCCCc1ccccc1 [Compound 56, (E)-3-(3,4-dihydroxyphenyl)-N-(4-phenylbutyl)acrylamide]

IC50 (5-lipoxygenase [1]): 510 nM | IC50 (5-lipoxygenase [2]): 2400 nM
Structure (SMILES): O=C(CCc1ccc(O)c(O)c1)OCCCCCCc1ccccc1 [Compound 3, 6-phenylhexyl 3-(3,4-dihydroxyphenyl)propanoate]

IC50 (5-lipoxygenase [3]): 650 to 1200 nM | IC50 (5-lipoxygenase [1]): 840 to 1100 nM | IC50 (5-lipoxygenase [2]): 3400 nM
Structure (SMILES): O=C(/C=C/c1ccc(O)c(O)c1)OCCc1ccccc1 [CAPE, caffeic acid phenethyl ester, reference compound]

inhibition at 1 µM (COX-1): 37.2%
Structure (SMILES): O=C(/C=C/c1ccc(O)c(O)c1)OCCc1ccc(F)cc1 [Compound 20, (E)-4-fluorophenethyl 3-(3,4-dihydroxyphenyl)acrylate]

IC50 (5-lipoxygenase [1]): 760 nM
Structure (SMILES): O=C(C=Cc1ccc(O)c(O)c1)OCC=Cc1ccccc1 (stereo in doubt) [Compound 4, (E)-(Z)-3-phenylallyl 3-(3,4-dihydroxyphenyl)acrylate]

IC50 (5-lipoxygenase [1]): 600 nM | remaining activity at 1 µM (COX-2; [4]): 62.9% | remaining activity at 1 µM (COX-2; [5]): 90.2% | remaining activity at 1 µM (COX-2; read-out: Avg % of control): 76.6%
Structure (SMILES): O=C(/C=C/c1ccc(O)c(O)c1)OCCCCc1ccccc1 [Compound 39, (E)-4-phenylbutyl 3-(3,4-dihydroxyphenyl)acrylate]

IC50 (5-lipoxygenase [1]): 890 nM | remaining activity at 1 µM (COX-2; [4]): 7.6% | remaining activity at 1 µM (COX-2; [5]): 45.3% | remaining activity at 1 µM (COX-2; read-out: Avg % of control): 26.4%
Structure (SMILES): O=C(CCc1ccc(O)c(O)c1)OCCCc1ccccc1 [Compound 33, 3-phenylpropyl 3-(3,4-dihydroxyphenyl)propanoate]

IC50 (5-lipoxygenase [1]): 1000 nM | inhibition at 1 µM (COX-1): 42% | remaining activity at 1 µM (COX-2; [4]): 34.3% | remaining activity at 1 µM (COX-2; [5]): 69% | remaining activity at 1 µM (COX-2; read-out: Avg % of control): 51.6%
Structure (SMILES): O=C(CCc1ccc(O)c(O)c1)OCCc1ccccc1 [Compound 32, phenethyl 3-(3,4-dihydroxyphenyl)propanoate]

inhibition at 1 µM (COX-1): 44.6%
Structure (SMILES): Cc1ccc(CCOC(=O)/C=C/c2ccc(O)c(O)c2)cc1 [Compound 21, (E)-4-methylphenethyl 3-(3,4-dihydroxyphenyl)acrylate]

inhibition at 1 µM (COX-1): 39.6%
Structure (SMILES): COc1ccc(CCOC(=O)/C=C/c2ccc(O)c(O)c2)cc1 [Compound 22, (E)-4-methoxyphenethyl 3-(3,4-dihydroxyphenyl)acrylate]

IC50 (5-lipoxygenase [1]): 1030 nM
Structure (SMILES): O=C(/C=C/c1ccc(O)c(O)c1)OC/C=C/c1ccccc1 [Compound 31, (E)-cinnamyl 3-(3,4-dihydroxyphenyl)acrylate]

IC50 (5-lipoxygenase [1]): 350 nM
Structure (SMILES): COc1cc(/C=C/C(=O)OCCCc2ccccc2)cc(OC)c1O [Compound 6, (E)-3-phenylpropyl 3-(4-hydroxy-3,5-dimethoxyphenyl)acrylate]

IC50 (5-lipoxygenase [1]): 870 nM
Structure (SMILES): O=C(CCc1ccc(O)c(O)c1)OCCCCc1ccccc1 [Compound 1, 4-phenylbutyl 3-(3,4-dihydroxyphenyl)propanoate]

IC50 (5-lipoxygenase [1]): 530 nM | remaining activity at 1 µM (COX-2; [4]): 37.8% | remaining activity at 1 µM (COX-2; [5]): 86.4% | remaining activity at 1 µM (COX-2; read-out: Avg % of control): 62.1%
Structure (SMILES): O=C(/C=C/c1ccc(O)c(O)c1)OCCCCCc1ccccc1 [Compound 40, (E)-5-phenylpentyl 3-(3,4-dihydroxyphenyl)acrylate]

IC50 (5-lipoxygenase [1]): 790 nM
Structure (SMILES): O=C(Cc1ccc(O)c(O)c1)OCCCc1ccccc1 [Compound 35, 3-phenylpropyl 2-(3,4-dihydroxyphenyl)acetate]

IC50 (5-lipoxygenase [1]): 840 nM
Structure (SMILES): O=C(/C=C/c1ccc(O)c(O)c1)OCCCCCCc1ccccc1 [Compound 41, (E)-6-phenylhexyl 3-(3,4-dihydroxyphenyl)acrylate]

IC50 (5-lipoxygenase [1]): 590 to 820 nM | remaining activity at 1 µM (COX-2; [4]): 34.9% | remaining activity at 1 µM (COX-2; [5]): 81.3% | remaining activity at 1 µM (COX-2; read-out: Avg % of control): 58.1%
Structure (SMILES): O=C(/C=C/c1ccc(O)c(O)c1)OCCCc1ccccc1 [Compound 25, (E)-3-phenylpropyl 3-(3,4-dihydroxyphenyl)acrylate]
